Results taken from PubChem BioAssay (NCI).
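1) Cells in 96-well plates. 2) Compound, 48 h, 5 concentrations. 3) Linear interpolation between surrounding doses. 4) Unreached endpoint = highest concentration. TGI: total growth inhibition.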

How the values were obtained:
Experiment in all cases: NCI-60 cell line screen, 48 h
[1] = system: HCT-15 colon
[2] = system: SK-OV-3 ovarian
[3] = system: BT-549 breast
[4] = system: EKVX NSCLC
[5] = system: SF-295 CNS
[6] = system: OVCAR-3 ovarian
[7] = system: HT29 colon
[8] = system: IGROV1 ovarian
[9] = system: MALME-3M melanoma
[10] = system: MDA-N
[11] = system: M14 melanoma
[12] = system: OVCAR-4 ovarian
[13] = system: SK-MEL-28 melanoma
[14] = system: CAKI-1 renal
[15] = system: NCI/ADR-RES ovarian
[16] = system: RXF 393 renal
[17] = system: SK-MEL-5 melanoma
[18] = system: MCF7 breast
[19] = system: SN12C renal
[20] = system: MDA-MB-435
[21] = system: UACC-257 melanoma
[22] = system: PC-3 prostate
[23] = system: SF-539 CNS
[24] = system: SR leukemia
[25] = system: SW-620 colon
[26] = system: RPMI-8226 leukemia
[27] = system: KM12 colon
[28] = system: NCI-H23 lung
[29] = system: A549 NSCLC
[30] = system: COLO 205 colon
[31] = system: K-562 leukemia
[32] = system: NCI-H226 lung
[33] = system: OVCAR-5 ovarian
[34] = system: SNB-19 CNS
[35] = system: HCT-116 colon
[36] = system: NCI-H522 lung
[37] = system: SK-MEL-2 melanoma
[38] = system: HOP-62 NSCLC
[39] = system: T-47D breast
[40] = system: SF-268 CNS
[41] = system: ACHN renal
[42] = system: UO-31 renal
[43] = system: OVCAR-8 ovarian
[44] = system: DU-145 prostate
[45] = system: HOP-92 NSCLC
[46] = system: 786-0 renal
[47] = system: A498 renal
[48] = system: LOX IMVI melanoma
[49] = system: U251 CNS
[50] = system: NCI-H460 lung
[51] = system: HL-60(TB) leukemia
[52] = system: TK-10 renal
[53] = system: UACC-62 melanoma
[54] = system: HCC-2998 colon
[55] = system: MDA-MB-231 breast
[56] = system: HS 578T breast
[57] = system: MOLT-4 leukemia

COc1ccc2c3c(c4cc(OC)c(OC)cc4c2c1)CN1CCC[C@H]1[C@@H]3O
TGI [1]: 1.19 µM | TGI [2]: > 100 µM | TGI [3]: 6.76 µM | TGI [4]: 0.578 µM | TGI [5]: 4.03 µM | TGI [6]: > 21.1 µM | TGI [7]: 0.373 µM | TGI [8]: 0.326 µM | TGI [9]: 0.829 µM | TGI [10]: 0.706 µM | TGI [11]: 1.3 µM | TGI [12]: 31.2 µM | TGI [13]: 0.667 µM | TGI [14]: 0.234 µM | TGI [15]: 26.1 µM | TGI [16]: 7.64 µM | TGI [17]: 0.398 µM | TGI [18]: > 100 µM | TGI [19]: 0.237 µM | TGI [20]: 4.21 µM | TGI [21]: 0.544 µM | TGI [22]: > 41.9 µM | TGI [23]: 0.829 µM | TGI [24]: 4.87 µM | TGI [25]: > 39.8 µM | TGI [26]: 5.17 µM | TGI [27]: 0.341 µM | TGI [28]: 0.169 µM | TGI [29]: > 55.4 µM | TGI [30]: 0.304 µM | TGI [31]: 0.653 µM | TGI [32]: 11.5 µM | TGI [33]: > 28.3 µM | TGI [34]: 2.13 µM | TGI [35]: 1.22 µM | TGI [36]: 2.85 µM | TGI [37]: 0.591 µM | TGI [38]: 2.81 µM

Cc1cc(C)n(C(C)(C(=O)Cc2ccccc2)n2nc(C)cc2C)n1
TGI [1]: > 100 µM | TGI [39]: > 100 µM | TGI [2]: > 100 µM | TGI [40]: > 100 µM | TGI [4]: > 100 µM | TGI [5]: > 100 µM | TGI [41]: > 100 µM | TGI [6]: > 100 µM | TGI [7]: > 100 µM | TGI [42]: > 100 µM | TGI [43]: > 100 µM | TGI [44]: > 100 µM | TGI [45]: > 100 µM | TGI [8]: > 100 µM | TGI [9]: > 100 µM | TGI [10]: > 100 µM | TGI [11]: > 100 µM | TGI [12]: > 100 µM | TGI [46]: > 100 µM | TGI [13]: > 100 µM | TGI [14]: > 100 µM | TGI [47]: > 100 µM | TGI [48]: > 100 µM | TGI [15]: > 100 µM | TGI [16]: > 100 µM | TGI [49]: > 100 µM | TGI [17]: > 100 µM | TGI [18]: > 100 µM | TGI [19]: > 100 µM | TGI [20]: > 100 µM | TGI [22]: > 100 µM | TGI [50]: > 100 µM | TGI [23]: > 100 µM | TGI [24]: > 100 µM | TGI [25]: > 100 µM | TGI [51]: > 100 µM | TGI [26]: > 100 µM | TGI [52]: > 100 µM | TGI [27]: > 100 µM | TGI [53]: > 100 µM | TGI [28]: > 100 µM | TGI [29]: > 100 µM | TGI [30]: > 100 µM | TGI [31]: > 100 µM | TGI [32]: > 100 µM | TGI [33]: > 100 µM | TGI [54]: > 100 µM | TGI [34]: > 100 µM | TGI [55]: > 100 µM | TGI [35]: > 100 µM | TGI [56]: > 100 µM | TGI [57]: > 100 µM | TGI [36]: > 100 µM | TGI [37]: > 100 µM | TGI [38]: > 100 µM
